Measured values: ChEMBL document CHEMBL1155243, “In vitro erythrocytic uptake studies of artemisinin and selected derivatives using LC-MS and 2D-QSAR analysis of uptake in parasitized erythrocytes” (Bioorg Med Chem, 2009)

Experiments:
Details in all cases: erythrocyte
[1] = Drug uptake in human type-A erythrocytes infected with Plasmodium falciparum D6 at 3.55 uM after 2 hrs by LC-MS analysis; format: ADME, cell-based
[2] = Toxicity in human type-A RBC assessed as hematocrit at 3.55 uM after 2 hrs; format: cell-based
[3] = Drug uptake in human type-A RBC at 3.55 uM after 2 hrs by LC-MS analysis; format: ADME, cell-based

SMILES	Drug uptake [1]	Activity [2]	Drug uptake [3]
C[C@@H]1CC[C@H]2[C@@H](CCCc3cccc(Cl)c3)[C@H](O)O[C@@H]3O[C@]4(C)CC[C@@H]1[C@]32OO4	71.21%	33%	40.13%
C[C@@H]1CC[C@H]2CC(=O)O[C@@H]3O[C@]4(CC(=O)O)CC[C@@H]1[C@@]23OO4	54.51%	33%	34.03%
C[C@H]1C(=O)O[C@@H]2O[C@@]3(C)CC[C@@H]4[C@@]2(OO3)[C@H]1CC[C@]4(C)O	53.89%	33%	32.99%
CCCC[C@H]1C(=O)O[C@@H]2O[C@]3(CC)CC[C@H]4[C@H](C)CC[C@@H]1[C@@]24OO3	62.5%	33%	39.11%
C[C@@H]1CC[C@H]2[C@@H](CCCc3cc(C(F)(F)F)cc(C(F)(F)F)c3)C(=O)O[C@@H]3O[C@]4(C)CC[C@@H]1[C@]32OO4	72.09%	33%	41.07%
C[C@@H]1CC[C@H]2[C@@H](CC(=O)O)C(=O)O[C@@H]3O[C@]4(C)CC[C@@H]1[C@]32OO4	54.23%	33%	33.92%
C[C@@H]1[C@@H](O)C[C@H]2[C@@H](C)C(=O)O[C@@H]3O[C@]4(C)CC[C@@H]1[C@]32OO4	53.9%	33%	33.1%
C[C@@H]1CC[C@H]2[C@@H](CCCc3ccc(S(C)(=O)=O)cc3)C(=O)O[C@@H]3O[C@]4(C)CC[C@@H]1[C@]32OO4	61.9%	33%	38.53%
C[C@@H]1CC[C@H]2[C@@H](CN3C(=O)CSC3=O)C(=O)O[C@@H]3O[C@]4(C)CC[C@@H]1[C@]32OO4	57.69%	33%	33.94%
CC(C)CN1C(=O)C[C@@H]2CC[C@@H](C)[C@@H]3CC[C@]4(C)OO[C@@]23[C@H]1O4	61.51%	33%	35.17%
C[C@@H]1CC[C@H]2[C@@H](C)C(=O)O[C@@H]3O[C@@]4(C)CC[C@@H]1[C@]32OO4 [ARTEMISININ]	61.07%	33%	34.68%
C[C@@H]1CC[C@H]2[C@@H](CCCc3ccc(O)cc3)C(=O)O[C@@H]3O[C@]4(C)CC[C@@H]1[C@]32OO4.Cl	63.09%	33%	39.01%
C[C@@H]1CC[C@H]2[C@@H](CN3C(=O)CCC3=O)C(=O)O[C@@H]3O[C@]4(C)CC[C@@H]1[C@]32OO4	66.06%	33%	36.57%
C[C@@H]1CC[C@H]2[C@@H](CCCc3cc(C(F)(F)F)cc(C(F)(F)F)c3)CO[C@@H]3O[C@]4(C)CC[C@@H]1[C@]32OO4	72%	33%	42.11%
C[C@@H]1[C@@H](OC(=O)Nc2ccccc2)C[C@H]2[C@@H](C)C(=O)O[C@@H]3O[C@]4(C)CC[C@@H]1[C@]32OO4	51.04%	33%	32.18%
C[C@@H]1[C@@H](OC(=O)NC2CC2c2ccccc2)C[C@H]2[C@@H](C)C(=O)O[C@@H]3O[C@]4(C)CC[C@@H]1[C@]32OO4 (some centres undefined)	51.63%	33%	32.31%
C[C@@H]1CC[C@H]2[C@@H](CCCc3ccc(N(C)C)cc3)C(=O)O[C@@H]3O[C@]4(C)CC[C@@H]1[C@]32OO4.Cl	51.92%	33%	32.82%
C[C@@H]1[C@@H](OC(=O)Nc2cccc3ccccc23)C[C@H]2[C@@H](C)C(=O)O[C@@H]3O[C@]4(C)CC[C@@H]1[C@]32OO4	51.68%	33%	32.63%
C[C@@H]1CC[C@H]2CC(=O)O[C@@H]3O[C@]4(CCc5ccccc5)CC[C@@H]1[C@@]23OO4	62.34%	33%	38.96%
C[C@@H]1CC[C@H]2[C@@H](CCCc3cc(C(F)(F)F)cc(C(F)(F)F)c3)[C@H](O)O[C@@H]3O[C@]4(C)CC[C@@H]1[C@]32OO4	71.76%	33%	40.43%
CCCCCCCCCCCCCC[C@H]1C(=O)O[C@@H]2O[C@]3(C)CC[C@H]4[C@H](C)CC[C@@H]1[C@@]24O3	73%	33%	45.09%
C[C@@H]1CC[C@H]2CC(=O)N(CCc3ccccc3)[C@@H]3O[C@]4(C)CC[C@@H]1[C@@]23OO4	61.8%	33%	38.43%
C[C@@H]1CC[C@H]2[C@@H](CCCc3cc(F)cc(F)c3)CO[C@@H]3O[C@]4(C)CC[C@@H]1[C@]32OO4	70.91%	33%	40.01%
